Test results from patent US8921362B2, “6,7-dialkoxy quinazoline derivatives and methods of treating drug resistant and other tumors” (Natco Pharma Limited, priority 2008, dated 2014).

Legend:
Experiment in all cases: KinomeScan
Format in all cases: binding
Details in all cases: read-out: % Ctrl @ 10000 nM
[1] = target: T1, TIE2 (Homo sapiens, UniProt Q02763)
T1 construct: host or cells: E. coli host derived from BL21, T7 phage
Outline: (§1)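 Competition binding of kinase-tagged T7 phage (BL21-derived E. coli lysates) to immobilized ligand on biotin-blocked beads; test compound diluted from 40× DMSO stocks, 2.5% DMSO in no-compound controls. Bound phage eluted and titer quantified by qPCR.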

[2] = target: T2, MAP4K2 (Homo sapiens, UniProt Q12851)
T2 construct: host or cells: E. coli host derived from the BL21 strain, infected with T7 phage
Outline: as §1

[3] = target: T3, MEK2 (Homo sapiens, UniProt P36507)
T3 construct: host or cells: E. coli host derived from the BL21 strain, infected with T7 phage
Outline: as §1

[4] = target: T4, ABL1(E255K) (Homo sapiens, UniProt P00519, E255K)
T4 construct: host or cells: E. coli (BL21-derived), T7 phage lysate
Outline: as §1

[5] = target: T5, ABL1(F317L) (Homo sapiens, UniProt P00519, F317L)
T5 construct: host or cells: E. coli (BL21-derived), T7 phage lysate
Outline: as §1

[6] = target: T6, CSNK2A1 (Homo sapiens, UniProt P68400)
T6 construct: purchased Ambit Biosciences Corp (KinomeScan); host or cells: T7 phage in E. coli host derived from BL21
T6 sequence (P68400 whole entry): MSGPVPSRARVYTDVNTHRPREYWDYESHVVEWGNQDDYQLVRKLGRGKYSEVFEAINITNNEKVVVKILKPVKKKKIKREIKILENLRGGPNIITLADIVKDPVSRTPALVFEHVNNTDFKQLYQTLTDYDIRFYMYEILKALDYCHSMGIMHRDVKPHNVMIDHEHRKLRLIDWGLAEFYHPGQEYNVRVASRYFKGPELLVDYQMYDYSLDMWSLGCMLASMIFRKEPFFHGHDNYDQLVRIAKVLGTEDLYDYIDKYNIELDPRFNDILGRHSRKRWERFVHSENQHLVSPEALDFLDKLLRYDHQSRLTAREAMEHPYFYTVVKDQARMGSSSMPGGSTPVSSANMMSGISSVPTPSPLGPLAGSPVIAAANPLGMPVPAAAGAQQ
Outline: as §1

[7] = target: T7, MARK2 (Homo sapiens, UniProt Q7KZI7)
T7 construct: host or cells: E. coli host derived from the BL21 strain, infected with T7 phage
Outline: as §1

[8] = target: T8, DDR1 (Homo sapiens, UniProt Q08345)
T8 construct: purchased Ambit Biosciences Corp (KinomeScan); host or cells: T7 phage in E. coli host derived from BL21
Outline: as §1

[9] = target: T9, IRAK3 (Homo sapiens, UniProt Q9Y616)
T9 construct: host or cells: T7 phage grown in E. coli host derived from BL21
T9 sequence (Q9Y616 whole entry): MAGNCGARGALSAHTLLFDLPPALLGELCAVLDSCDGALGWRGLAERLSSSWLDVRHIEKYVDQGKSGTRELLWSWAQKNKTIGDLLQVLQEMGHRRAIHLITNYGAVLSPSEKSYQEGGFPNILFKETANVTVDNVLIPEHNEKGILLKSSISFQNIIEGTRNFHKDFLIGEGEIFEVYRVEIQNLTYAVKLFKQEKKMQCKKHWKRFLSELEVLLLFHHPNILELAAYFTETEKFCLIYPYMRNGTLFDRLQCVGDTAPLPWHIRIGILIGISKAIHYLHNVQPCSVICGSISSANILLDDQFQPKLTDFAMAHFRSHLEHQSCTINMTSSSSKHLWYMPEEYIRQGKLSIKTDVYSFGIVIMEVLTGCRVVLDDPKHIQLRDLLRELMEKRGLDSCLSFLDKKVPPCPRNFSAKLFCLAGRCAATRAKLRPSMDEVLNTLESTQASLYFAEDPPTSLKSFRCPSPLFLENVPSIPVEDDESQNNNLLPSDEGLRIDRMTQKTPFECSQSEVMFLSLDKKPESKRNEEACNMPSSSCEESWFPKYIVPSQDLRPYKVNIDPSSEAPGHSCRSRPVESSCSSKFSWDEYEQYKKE
Outline: as §1

[10] = target: T10, TAK1 (Homo sapiens, UniProt O43318)
T10 construct: host or cells: T7 phage grown in E. coli (BL21-derived)
Outline: as §1

[11] = target: T11, MRCKB (Homo sapiens, UniProt Q9Y5S2)
T11 construct: host or cells: T7 phage grown in E. coli host derived from BL21
Outline: as §1

[12] = target: T12, RIPK4 (Homo sapiens, UniProt P57078)
T12 construct: host or cells: E. coli host derived from BL21, T7 phage display
Outline: as §1

[13] = target: T13, MINK (Homo sapiens, UniProt Q8N4C8)
T13 construct: host or cells: E. coli host derived from the BL21 strain, infected with T7 phage
T13 sequence (Q8N4C8 whole entry): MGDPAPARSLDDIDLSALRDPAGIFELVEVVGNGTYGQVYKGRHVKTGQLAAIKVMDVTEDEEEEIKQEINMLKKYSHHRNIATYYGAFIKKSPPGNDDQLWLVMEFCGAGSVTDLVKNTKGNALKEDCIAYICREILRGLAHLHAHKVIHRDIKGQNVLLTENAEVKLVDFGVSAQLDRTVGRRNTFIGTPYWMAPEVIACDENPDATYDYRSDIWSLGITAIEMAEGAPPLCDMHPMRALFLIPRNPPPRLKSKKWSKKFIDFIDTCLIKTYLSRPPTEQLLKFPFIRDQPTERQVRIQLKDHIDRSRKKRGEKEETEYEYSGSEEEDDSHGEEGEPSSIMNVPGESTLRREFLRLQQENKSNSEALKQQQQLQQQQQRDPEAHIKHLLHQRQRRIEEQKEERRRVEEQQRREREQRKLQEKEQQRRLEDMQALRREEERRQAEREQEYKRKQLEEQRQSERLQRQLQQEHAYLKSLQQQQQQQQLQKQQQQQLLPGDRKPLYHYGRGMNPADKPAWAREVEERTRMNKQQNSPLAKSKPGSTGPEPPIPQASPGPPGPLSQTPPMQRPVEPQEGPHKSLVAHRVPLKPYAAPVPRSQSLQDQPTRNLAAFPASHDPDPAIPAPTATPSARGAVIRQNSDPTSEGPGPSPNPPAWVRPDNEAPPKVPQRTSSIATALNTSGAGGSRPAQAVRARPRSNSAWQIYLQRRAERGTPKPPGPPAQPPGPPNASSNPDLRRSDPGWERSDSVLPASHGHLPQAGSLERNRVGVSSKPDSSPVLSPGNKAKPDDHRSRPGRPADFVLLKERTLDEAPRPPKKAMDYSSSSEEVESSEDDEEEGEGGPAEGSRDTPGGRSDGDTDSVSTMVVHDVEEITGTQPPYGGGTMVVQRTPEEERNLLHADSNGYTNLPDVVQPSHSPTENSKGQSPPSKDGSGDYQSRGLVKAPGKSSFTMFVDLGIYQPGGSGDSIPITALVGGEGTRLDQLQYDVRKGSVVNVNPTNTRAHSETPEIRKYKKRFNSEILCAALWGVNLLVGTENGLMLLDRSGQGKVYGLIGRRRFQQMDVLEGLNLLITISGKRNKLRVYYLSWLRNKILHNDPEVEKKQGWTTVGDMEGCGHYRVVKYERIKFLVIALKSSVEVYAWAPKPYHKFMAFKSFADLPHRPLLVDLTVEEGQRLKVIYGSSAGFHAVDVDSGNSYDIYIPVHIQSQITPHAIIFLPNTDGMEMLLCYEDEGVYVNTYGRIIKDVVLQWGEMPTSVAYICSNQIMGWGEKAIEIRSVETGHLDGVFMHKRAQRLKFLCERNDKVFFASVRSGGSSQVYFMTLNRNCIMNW
Outline: as §1

[14] = target: T14, RET(V804M) (Homo sapiens, UniProt P07949, V804M)
T14 construct: host or cells: E. coli host derived from BL21, T7 phage display
Outline: as §1

[15] = target: T15, NEK7 (Homo sapiens, UniProt Q8TDX7)
T15 construct: host or cells: T7 phage grown in E. coli host derived from BL21
T15 sequence (Q8TDX7 whole entry): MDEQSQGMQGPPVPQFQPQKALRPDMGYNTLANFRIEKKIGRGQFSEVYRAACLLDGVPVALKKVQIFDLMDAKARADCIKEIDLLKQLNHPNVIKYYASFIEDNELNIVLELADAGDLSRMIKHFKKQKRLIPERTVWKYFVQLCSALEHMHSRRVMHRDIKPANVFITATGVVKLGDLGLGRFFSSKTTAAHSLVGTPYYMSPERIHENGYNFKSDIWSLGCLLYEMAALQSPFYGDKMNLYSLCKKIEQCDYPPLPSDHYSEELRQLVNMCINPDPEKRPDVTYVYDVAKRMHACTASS
Outline: as §1

[16] = target: T16, HPK1 (Homo sapiens, UniProt Q92918)
T16 construct: host or cells: T7 phage in E. coli host derived from BL21
Outline: as §1

[17] = target: T17, CDC2L1 (Homo sapiens, UniProt P21127)
T17 construct: host or cells: T7 phage in E. coli host derived from BL21
Outline: as §1

[18] = target: T18, AKT1 (Homo sapiens, UniProt P31749)
T18 construct: host or cells: E. coli (BL21-derived), T7 phage lysate
T18 sequence (P31749 whole entry): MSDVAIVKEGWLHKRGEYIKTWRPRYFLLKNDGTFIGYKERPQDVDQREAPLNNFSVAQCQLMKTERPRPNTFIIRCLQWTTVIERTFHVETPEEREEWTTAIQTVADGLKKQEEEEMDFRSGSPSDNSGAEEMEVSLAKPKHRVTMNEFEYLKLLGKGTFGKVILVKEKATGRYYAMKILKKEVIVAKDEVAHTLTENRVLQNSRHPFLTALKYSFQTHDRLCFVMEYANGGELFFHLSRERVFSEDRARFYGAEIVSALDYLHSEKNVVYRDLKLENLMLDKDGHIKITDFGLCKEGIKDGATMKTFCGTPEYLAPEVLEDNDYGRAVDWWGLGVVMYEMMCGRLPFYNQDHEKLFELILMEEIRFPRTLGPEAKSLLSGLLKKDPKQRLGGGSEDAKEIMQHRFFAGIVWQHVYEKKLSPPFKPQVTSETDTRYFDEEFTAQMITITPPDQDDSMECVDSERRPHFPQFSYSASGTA
Outline: as §1

[19] = target: T19, EGFR(L861Q) (Homo sapiens, UniProt P00533, L861Q)
T19 construct: purchased Ambit Biosciences Corp; host or cells: T7 phage in E. coli host derived from BL21
T19 sequence (P00533 25-1210 L861Q): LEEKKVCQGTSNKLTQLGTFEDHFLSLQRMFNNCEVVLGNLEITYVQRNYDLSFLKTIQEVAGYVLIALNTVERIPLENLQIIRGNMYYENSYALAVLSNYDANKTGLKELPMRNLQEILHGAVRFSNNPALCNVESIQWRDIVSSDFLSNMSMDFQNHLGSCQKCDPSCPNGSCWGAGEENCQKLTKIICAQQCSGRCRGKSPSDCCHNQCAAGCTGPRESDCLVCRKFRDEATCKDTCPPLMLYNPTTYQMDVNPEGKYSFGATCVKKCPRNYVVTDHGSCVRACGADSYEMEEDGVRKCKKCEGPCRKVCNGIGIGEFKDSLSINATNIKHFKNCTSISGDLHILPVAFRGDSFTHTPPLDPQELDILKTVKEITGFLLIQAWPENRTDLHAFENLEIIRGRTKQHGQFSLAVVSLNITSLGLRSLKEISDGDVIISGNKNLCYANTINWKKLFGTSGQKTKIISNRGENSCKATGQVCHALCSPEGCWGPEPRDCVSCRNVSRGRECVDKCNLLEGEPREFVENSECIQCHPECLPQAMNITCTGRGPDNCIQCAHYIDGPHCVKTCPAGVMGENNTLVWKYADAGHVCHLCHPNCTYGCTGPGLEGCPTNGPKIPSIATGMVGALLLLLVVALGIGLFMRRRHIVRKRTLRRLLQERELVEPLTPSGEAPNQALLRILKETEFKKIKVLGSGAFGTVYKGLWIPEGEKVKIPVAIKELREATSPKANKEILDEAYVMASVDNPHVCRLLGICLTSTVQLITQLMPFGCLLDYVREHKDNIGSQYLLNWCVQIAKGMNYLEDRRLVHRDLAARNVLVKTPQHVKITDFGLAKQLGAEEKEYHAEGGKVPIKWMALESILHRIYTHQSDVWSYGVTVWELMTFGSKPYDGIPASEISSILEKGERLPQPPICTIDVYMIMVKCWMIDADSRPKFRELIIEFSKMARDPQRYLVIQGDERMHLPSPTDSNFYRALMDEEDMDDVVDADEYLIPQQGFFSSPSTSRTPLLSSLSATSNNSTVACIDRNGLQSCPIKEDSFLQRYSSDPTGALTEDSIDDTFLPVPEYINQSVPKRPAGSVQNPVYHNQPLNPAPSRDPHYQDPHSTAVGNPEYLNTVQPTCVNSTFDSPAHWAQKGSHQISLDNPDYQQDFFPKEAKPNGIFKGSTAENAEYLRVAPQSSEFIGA
Outline: as §1

[20] = target: T20, ACVRL1 (Homo sapiens, UniProt P37023)
T20 construct: host or cells: E. coli (BL21-derived), T7 phage lysate
Outline: as §1

[21] = target: T21, PLK1 (Homo sapiens, UniProt P53350)
T21 construct: host or cells: T7 phage in E. coli host derived from BL21
Outline: as §1

[22] = target: T22, IKK-alpha (Homo sapiens, UniProt O15111)
T22 construct: host or cells: T7 phage grown in E. coli host derived from BL21
Outline: as §1

[23] = target: T23, CSF1R (Homo sapiens, UniProt P07333)
T23 construct: host or cells: T7 phage in E. coli host derived from BL21
Outline: as §1

[24] = target: T24, BTK (Homo sapiens, UniProt Q06187)
T24 construct: host or cells: E. coli host derived from BL21
Outline: as §1

[25] = target: T25, PLK4 (Homo sapiens, UniProt O00444)
T25 construct: host or cells: T7 phage in E. coli host derived from BL21
Outline: as §1

[26] = target: T26, TRKA (Homo sapiens, UniProt P04629)
T26 construct: host or cells: E. coli host derived from BL21, T7 phage
Outline: as §1

[27] = target: T27, ULK3 (Homo sapiens, UniProt Q6PHR2)
T27 construct: host or cells: E. coli host derived from BL21, T7 phage
Outline: as §1

[28] = target: T28, ANKK1 (Homo sapiens, UniProt Q8NFD2)
T28 construct: host or cells: E. coli (BL21-derived), T7 phage lysate
Outline: as §1

[29] = target: T29, MEK1 (Homo sapiens, UniProt Q02750)
T29 construct: host or cells: E. coli host derived from the BL21 strain, infected with T7 phage
T29 sequence (Q02750 whole entry): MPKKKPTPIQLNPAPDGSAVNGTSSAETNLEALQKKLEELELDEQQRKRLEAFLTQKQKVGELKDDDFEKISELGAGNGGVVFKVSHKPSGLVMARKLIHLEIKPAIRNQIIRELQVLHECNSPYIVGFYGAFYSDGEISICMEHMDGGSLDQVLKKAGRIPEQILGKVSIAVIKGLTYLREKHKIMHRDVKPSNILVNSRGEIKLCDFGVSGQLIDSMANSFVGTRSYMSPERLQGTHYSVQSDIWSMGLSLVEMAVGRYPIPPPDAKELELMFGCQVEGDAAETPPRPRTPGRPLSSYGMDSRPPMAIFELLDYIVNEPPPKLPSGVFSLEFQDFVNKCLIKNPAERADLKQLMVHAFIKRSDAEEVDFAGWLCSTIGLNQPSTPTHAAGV
Outline: as §1

[30] = target: T30, STK33 (Homo sapiens, UniProt Q9BYT3)
T30 construct: host or cells: T7 phage grown in E. coli (BL21-derived)
Outline: as §1

[31] = target: T31, TYK2(JH2domain-pseudokinase) (Homo sapiens, UniProt P29597)
T31 construct: TYK2(JH2domain-pseudokinase); host or cells: E. coli host derived from BL21, T7 phage
T31 sequence (P29597 589-875 limits assumed): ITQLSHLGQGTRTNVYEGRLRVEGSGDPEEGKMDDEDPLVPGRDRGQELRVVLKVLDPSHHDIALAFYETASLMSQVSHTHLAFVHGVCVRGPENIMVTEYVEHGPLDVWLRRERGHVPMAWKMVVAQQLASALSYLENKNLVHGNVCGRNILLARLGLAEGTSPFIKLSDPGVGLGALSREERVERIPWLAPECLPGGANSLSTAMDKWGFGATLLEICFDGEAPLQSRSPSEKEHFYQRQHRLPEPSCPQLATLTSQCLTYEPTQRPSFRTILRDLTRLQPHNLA
Outline: as §1

[32] = target: T32, MUSK (Homo sapiens, UniProt O15146)
T32 construct: host or cells: T7 phage grown in E. coli host derived from BL21
Outline: as §1

[33] = target: T33, ABL1(F317I) (Homo sapiens, UniProt P00519, F317I)
T33 construct: host or cells: E. coli (BL21-derived), T7 phage lysate
Outline: as §1

## C#Cc1cccc(Nc2ncnc3cc(OC)c(OCCCN4CCOCC4)cc23)c1 [NRC-2694, N-(3-ethynylphenyl)-7-methoxy-6-[3-(4-morpholinyl)propoxy]-4-quinazolinamine]
[1]
  remaining binding at 10 µM: 76%
[2]
  remaining binding at 10 µM: 48%
[3]
  remaining binding at 10 µM: 44%
[4]
  remaining binding at 10 µM: 80%
[5]
  remaining binding at 10 µM: 33%
[6]
  remaining binding at 10 µM: 56%
[7]
  remaining binding at 10 µM: 70%
[8]
  remaining binding at 10 µM: 39%
[9]
  remaining binding at 10 µM: 25%
[10]
  remaining binding at 10 µM: 66%
[11]
  remaining binding at 10 µM: 71%
[12]
  remaining binding at 10 µM: 96%
[13]
  remaining binding at 10 µM: 16%
[14]
  remaining binding at 10 µM: 100%
[15]
  remaining binding at 10 µM: 78%
[16]
  remaining binding at 10 µM: 47%
[17]
  remaining binding at 10 µM: 42%
[18]
  remaining binding at 10 µM: 100%
[19]
  remaining binding at 10 µM: 0%
[20]
  remaining binding at 10 µM: 91%
[21]
  remaining binding at 10 µM: 81%
[22]
  remaining binding at 10 µM: 41%
[23]
  remaining binding at 10 µM: 50%
[24]
  remaining binding at 10 µM: 77%
[25]
  remaining binding at 10 µM: 70%
[26]
  remaining binding at 10 µM: 100%
[27]
  remaining binding at 10 µM: 62%
[28]
  remaining binding at 10 µM: 73%
[29]
  remaining binding at 10 µM: 50%
[30]
  remaining binding at 10 µM: 43%
[31]
  remaining binding at 10 µM: 23%
[32]
  remaining binding at 10 µM: 100%
[33]
  remaining binding at 10 µM: 48%
